Legend:
[1] = target: T1, GluA1 (GluA1-containing receptors) (Rattus norvegicus, UniProt P19490); assay: Xenopus oocyte currents, […] kainic acid, […] ShuBQX-3 in the dark ([…] antagonism); assay type: cell-based
T1 construct: gene Gria1; GluA1-containing receptors expressed in Xenopus oocytes

GluK2 receptor = target: T2, GluK2 receptor (Rattus norvegicus, UniProt P42260); assay: Xenopus oocyte currents, […] ShuBQX-3 in the dark; […] antagonism at […] glutamate, […] at […] glutamate; assay type: cell-based; conditions: read-out: % antagonism at 5 μM (30 μM glutamate)
T2 construct: gene Grik2; GluK2-containing receptors expressed in Xenopus oocytes
T2 sequence (P42260 32-908): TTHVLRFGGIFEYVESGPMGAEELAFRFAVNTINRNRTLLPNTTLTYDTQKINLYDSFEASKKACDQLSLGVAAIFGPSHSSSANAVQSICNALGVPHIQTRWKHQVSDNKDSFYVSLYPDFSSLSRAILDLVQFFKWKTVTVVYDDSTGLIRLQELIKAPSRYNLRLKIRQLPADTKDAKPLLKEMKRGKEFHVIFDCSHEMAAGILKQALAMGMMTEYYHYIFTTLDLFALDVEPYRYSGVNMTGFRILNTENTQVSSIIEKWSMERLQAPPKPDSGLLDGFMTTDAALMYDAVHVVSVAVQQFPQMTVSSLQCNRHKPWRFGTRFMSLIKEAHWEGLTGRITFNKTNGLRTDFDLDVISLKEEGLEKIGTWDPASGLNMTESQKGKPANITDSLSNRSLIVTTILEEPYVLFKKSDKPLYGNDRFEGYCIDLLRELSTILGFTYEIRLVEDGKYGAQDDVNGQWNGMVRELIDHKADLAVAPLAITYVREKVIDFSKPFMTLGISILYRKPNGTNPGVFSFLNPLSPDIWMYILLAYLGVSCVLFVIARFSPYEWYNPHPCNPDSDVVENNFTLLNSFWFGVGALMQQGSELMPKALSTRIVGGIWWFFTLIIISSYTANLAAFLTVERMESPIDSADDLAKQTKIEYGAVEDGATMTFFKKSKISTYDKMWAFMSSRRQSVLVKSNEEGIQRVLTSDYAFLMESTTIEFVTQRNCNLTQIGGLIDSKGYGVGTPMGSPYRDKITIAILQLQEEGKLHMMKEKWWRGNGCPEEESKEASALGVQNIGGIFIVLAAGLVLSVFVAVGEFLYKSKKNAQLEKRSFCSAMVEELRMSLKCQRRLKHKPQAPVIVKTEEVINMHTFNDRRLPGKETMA

T1 sequence (P19490 19-907): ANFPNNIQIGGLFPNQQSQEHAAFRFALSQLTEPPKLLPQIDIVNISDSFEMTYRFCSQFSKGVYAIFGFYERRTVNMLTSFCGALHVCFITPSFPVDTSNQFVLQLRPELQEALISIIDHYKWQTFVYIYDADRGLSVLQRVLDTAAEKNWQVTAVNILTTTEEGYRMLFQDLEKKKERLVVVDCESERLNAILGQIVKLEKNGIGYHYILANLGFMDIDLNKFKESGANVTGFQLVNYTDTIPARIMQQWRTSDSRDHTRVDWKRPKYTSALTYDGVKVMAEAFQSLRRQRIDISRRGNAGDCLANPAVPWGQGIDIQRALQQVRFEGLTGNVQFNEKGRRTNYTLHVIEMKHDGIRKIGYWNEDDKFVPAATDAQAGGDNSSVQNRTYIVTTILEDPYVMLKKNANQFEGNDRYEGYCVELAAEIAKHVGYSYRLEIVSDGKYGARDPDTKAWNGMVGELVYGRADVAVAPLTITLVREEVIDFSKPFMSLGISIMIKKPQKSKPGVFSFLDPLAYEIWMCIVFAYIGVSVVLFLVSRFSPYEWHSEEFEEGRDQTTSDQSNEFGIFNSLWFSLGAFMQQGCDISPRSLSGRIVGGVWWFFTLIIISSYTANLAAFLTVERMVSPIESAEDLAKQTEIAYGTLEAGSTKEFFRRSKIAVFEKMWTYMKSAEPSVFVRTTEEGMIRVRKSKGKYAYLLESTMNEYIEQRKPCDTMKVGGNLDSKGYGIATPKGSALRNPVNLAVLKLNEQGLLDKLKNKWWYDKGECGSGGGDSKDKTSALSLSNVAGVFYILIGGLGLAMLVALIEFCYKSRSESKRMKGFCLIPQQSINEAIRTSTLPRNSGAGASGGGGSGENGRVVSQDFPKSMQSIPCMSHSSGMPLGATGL

inhibition at 5 µM [1]: 85 to 93%
inhibition at 5 µM (GluK2 receptor): 49%
Compound: O=c1[nH]c2cc(C(F)(F)F)c(/N=N/c3ccccc3)cc2n(CP(=O)(O)O)c1=O [ShuBQX-3]

From article PMC5358534, “Optical control of AMPA receptors using a photoswitchable quinoxaline-2,3-dione antagonist” (Chemical Science, 2016)
